According to patent US9109004B2, “Progesterone receptor antagonists” (Bayer Intellectual Property GmbH, priority 2010, dated 2015):

Legend:
pregnant rats = assay: Test as abortifacient in female rats (termination of early pregnancy); type: in vivo, rat; details: d5-d7 p.c., autopsy d9 p.c.
Protocol: Test as Abortifacient in Female Rats
The antagonistic action of the compounds according to the invention was tested on pregnant rats (6 rats per group) on day 5 to 7 post coitum in conventional conditions of husbandry and feeding.
After successful mating, the pregnant animals (presence of sperm in the vaginal smear on day 1 of pregnancy=d1 p.c.) were randomized and were divided into the treatment group and the control group. The animals then received, subcutaneously or orally, in each case 0.15; 0.5; 1.5 or 5 mg/kg of the test compound or 1.0 ml/kg of vehicle (benzyl benzoate/castor oil: 1+4 [v/v]) daily from day 5 to day 7 (d5-d7 p.c.).
Autopsy was carried out on day 9 (d9 p.c.). For characterization of progesterone-receptor-antagonistic action, the uterus was investigated for the presence of nidation sites. Complete absence, but also the presence of pathological, haemorrhagic or otherwise abnormal nidation sites on day 9 (d9 p.c.) was assessed as abortion.

[1] = molecular target: T1, human progesterone receptor A (Homo sapiens, UniProt P06401); assay: Progesterone-receptor-antagonistic action in stably transfected SK-N-MC cells, MTV-LUC reporter (PR-A); type: cell-based; details: antagonistic potency vs 0.1 nmol/l promegestone, 24 hours, luciferase
T1 construct: expressed in transfected cells; host or cells: SK-N-MC human neuroblastoma cells, stably transfected
T1 sequence (P06401 1-769 isoform P06401-2): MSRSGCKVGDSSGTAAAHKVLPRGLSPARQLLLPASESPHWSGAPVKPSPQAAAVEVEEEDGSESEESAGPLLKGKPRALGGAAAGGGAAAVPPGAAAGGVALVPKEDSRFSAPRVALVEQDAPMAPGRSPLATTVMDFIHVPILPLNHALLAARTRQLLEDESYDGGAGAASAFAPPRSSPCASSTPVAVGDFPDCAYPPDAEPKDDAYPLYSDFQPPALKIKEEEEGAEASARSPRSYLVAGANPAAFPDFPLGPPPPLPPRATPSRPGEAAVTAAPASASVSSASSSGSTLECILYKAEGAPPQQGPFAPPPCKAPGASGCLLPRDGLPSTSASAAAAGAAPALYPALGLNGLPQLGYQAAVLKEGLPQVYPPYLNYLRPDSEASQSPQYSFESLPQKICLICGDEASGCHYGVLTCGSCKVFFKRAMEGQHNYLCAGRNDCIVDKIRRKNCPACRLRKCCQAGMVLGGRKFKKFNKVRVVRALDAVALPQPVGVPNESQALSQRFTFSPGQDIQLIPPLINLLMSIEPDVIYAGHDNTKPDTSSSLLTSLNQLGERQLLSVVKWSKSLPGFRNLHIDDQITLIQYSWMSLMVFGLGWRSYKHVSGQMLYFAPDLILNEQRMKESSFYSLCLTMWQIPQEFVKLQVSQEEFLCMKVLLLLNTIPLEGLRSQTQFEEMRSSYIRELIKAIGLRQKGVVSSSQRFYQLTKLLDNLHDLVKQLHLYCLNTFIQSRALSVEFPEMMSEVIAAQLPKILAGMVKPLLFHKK
How it was run: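 SK-N-MC neuroblastoma cells stably expressing human PR-B or PR-A plus MMTV-LUC reporter, treated 24 h with 0.1 nmol/l promegestone plus test compound at 0.01 nmol/l–1 μmol/l. Luciferase in lysates read as RLU; values as % efficacy and IC50.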

IC50 [1]: 0.01 nM
Structure (SMILES): C[C@]12C[C@H](c3ccc(-c4ccc(C(N)=O)cc4)cc3)C3=C4CCC(=O)C=C4CC[C@H]3[C@@H]1CC[C@@]2(O)C(F)(F)C(F)(F)F [Example 79, 4′-[(11β,17β)-17-Hydroxy-3-oxo-17-(pentafluoroethyl)estra-4,9-dien-11-yl]biphenyl-4-carboxamide]
Abortion rate (pregnant rats; daily dose 0.5 mg/kg p.o.): 100%
Abortion rate (pregnant rats; daily dose 1.5 mg/kg p.o.): 100%
Abortion rate (pregnant rats; daily dose 5.0 mg/kg p.o.): 100%
